In the Deep4Chem optical property database:
Several values for one entry are separate records, joined by “and”; a condition that tells them apart may be missing. Identical values can stand only once.

Experiment: solvent given as SMILES
[1] = in c1ccc2c(c1)c1ccccc1n2-c1ccc(-c2ccc(-n3c4ccccc4c4ccccc43)cc2)cc1

For CCCCC1(CCCC)c2cc(C#Cc3ccc(/C=C(\C)c4ccccc4)cc3)ccc2-c2ccc(C#Cc3ccc(/C=C(\C)c4ccccc4)cc3)cc21, the emission maximum (in C1CCOC1) was 403 nm.
O=C(c1ccc(N2c3ccccc3Sc3ccccc32)cc1)c1ccc2sc3ccccc3c2c1 gave an emission maximum (in C1CCOC1) of 604 nm and an emission maximum [1] of 524 nm.
Work on CC(=O)c1ccc(-c2cnc3nn4ccccc4c3c2)cc1 yielded an emission maximum (in C1CCOC1) of 420 nm.
For Cc1ccc(-c2ccc(/C=C/c3cccn3C)cn2)nc1, the emission maximum (in C1COCCO1) was 464 nm, the emission maximum (in CC#N) was 488 nm and the emission maximum (in CCCCCC) was 436 nm. The emission maximum (in CCO) was 501 nm, the emission maximum (in CN(C)C=O) was 493 nm and the emission maximum (in CO) was 507 nm. The emission maximum (in CS(C)=O) was 500 nm, the emission maximum (in Cc1ccccc1) was 459 nm and the emission maximum (in ClC(Cl)Cl) was 476 nm. It also gave an emission maximum (in c1ccccc1) of 464 nm.
With CCCCCCCCCCCCNc1cccc2[n+]1[B-](F)(F)n1c(c3cccc4cccc1c43)=N2 the emission maximum (in C1CCOC1) was 523 nm, the emission maximum (in CC#N) was 519 nm and the emission maximum (in CCCCCC) was 509 nm. It also gave an emission maximum (in Cc1ccccc1) of 529 nm and an emission maximum (in ClCCl) of 522 nm.
In the case of COc1ccc(N(c2ccc(OC)cc2)c2ccc3c4cccc5c(N(c6ccc(OC)cc6)c6ccc(OC)cc6)ccc(c6cccc2c63)c54)cc1, the emission maximum (in C1CCCCC1) is reported as 551 nm, the emission maximum (in C1CCOC1) is reported as 583 nm and the emission maximum (in CC#N) is reported as 598 nm. The emission maximum (in Cc1ccccc1) was 574 nm and the emission maximum (in ClCCl) was 591 nm.
With CCN(CC)c1ccc2c(-c3ccccc3C(=O)O)c3c([o+]c2c1)/C(=C/Nc1ccccc1)CCC3 the emission maximum (in CCO) was 641 nm, the emission maximum (in ClC(Cl)Cl) was 644 nm and the emission maximum (in ClCCl) was 644 nm.
CC(=O)Nc1ccc2c3c(cccc13)C(=O)c1ccccc1-2 gave an emission maximum (in CC#N) of 539.96 nm, an emission maximum (in CC(C)=O) of 526.04 nm and an emission maximum (in CC(C)O) of 567.86 nm. The emission maximum (in CCCCOCCCC) was 507.1 nm, the emission maximum (in CCOC(C)=O) was 520.02 nm and the emission maximum (in CCOCC) was 518.13 nm. For the same molecule, the emission maximum (in CO) was 573.07 nm, the emission maximum (in Cc1ccccc1) was 516 nm and the emission maximum (in Clc1ccccc1) was 520.02 nm. It also gave an emission maximum (in N#Cc1ccccc1) of 527.98 nm and an emission maximum (in O=C1CCCCC1) of 526.87 nm.
Work on CCOC(=O)C1=C(N)n2c(=O)c3ccccc3c(=O)n2C1c1ccc([N+](=O)[O-])cc1 (configuration not stated) yielded an emission maximum (in CS(C)=O) of 510 nm.
With O=C(O)C1=C/C(=C/C=[NH+]/c2ccc3c(C(F)(F)F)cc(=O)oc3c2)CC(C(=O)O)N1 (configuration not stated) the emission maximum (in O) was 570 nm.
COc1cccc(OC)c1-c1c2ccc(=[N+]3CCNCC3)cc-2oc2cc(N3CCNCC3)ccc12 showed an emission maximum (in CCO) of 582 nm and an emission maximum (in O) of 568 nm.
For Cc1ccc2nc3[nH]c(=O)[nH]c(=O)c3nc2c1C, the emission maximum (in CC#N) was 469 nm.
Work on Cc1cc2nc3cc(C)c(N)cc3[n+](-c3ccccc3)c2cc1N yielded an emission maximum (in CC(C)O) of 562 nm, an emission maximum (in CCO) of 564 nm and an emission maximum (in CO) of 563.8 nm. For the same molecule, the emission maximum (in O) was 588.3 nm.
With CCCCC1(CCCC)c2cc(/C=C/c3ccc(N(c4ccccc4)c4ccccc4)cc3)ccc2-c2cc3c(cc21)-c1ccc(/C=C/c2ccc(N(c4ccccc4)c4ccccc4)cc2)cc1C3(CCCC)CCCC the emission maximum (in Cc1ccccc1) was 450 nm.
In the case of Cc1cc(C)c(B(c2ccsc2-c2sccc2P(=O)(c2ccccc2)c2ccccc2)c2c(C)cc(C)cc2C)c(C)c1, the emission maximum (in CO) is reported as 512 nm.
Work on c1cc2c3ccc[n+]4cccc(c5ccc[n+](c1)c25)c34 yielded an emission maximum (in CC#N) of 442 nm, an emission maximum (in CS(C)=O) of 443 nm and an emission maximum (in C[N+](=O)[O-]) of 441 nm. It also gave an emission maximum (in O) of 441 nm.
O=S1(=O)c2ccc(-c3ccc(N(c4ccccc4)c4ccccc4)cc3)cc2C2(c3ccccc3-c3ccccc32)c2cc(-c3ccc(N(c4ccccc4)c4ccccc4)cc3)ccc21 showed an emission maximum (in CC(C)=O) of 477.11 nm, an emission maximum (in CCCCCC) of 398.37 nm and an emission maximum (in CN(C)C=O) of 491.2 nm. For the same molecule, the emission maximum (in Cc1ccccc1) was 425.46 nm and the emission maximum (in ClCCl) was 465 nm.
With CCCCCCN(CCCCCC)c1ccc(C#Cc2ccc(C#Cc3ccc(-c4ccc(C#Cc5ccc(C#Cc6ccc(N(CCCCCC)CCCCCC)cc6)cc5)cc4)cc3)cc2)cc1 the emission maximum (in Cc1ccccc1) was 433 nm.
For CC1(C)c2ccccc2-c2sc3ccccc3c21, the emission maximum (in ClCCl) was 354 nm.
Molecule N#CC1=C(N)n2c(=O)c3ccccc3c(=O)n2C1c1ccc([N+](=O)[O-])cc1 (configuration not stated) has an emission maximum (in CS(C)=O) of 575 nm.
In the case of CCCCN1C(=O)C2=C(c3ccc(-c4ccc5c(c4)C(C)(C)c4ccccc4-5)cc3)[N-]C(=O)C2=C1c1ccc(-c2ccc3c(c2)C(C)(C)c2ccccc2-3)cc1, the emission maximum (in ClCCl) is reported as 635 nm.
CCCCCCCCCCCCOc1ccc(C#Cc2ccc(C#Cc3ccc(OCCCCCCCCCCCC)c(OCCCCCCCCCCCC)c3)c3nc4c5ccccc5c5ccccc5c4nc23)cc1OCCCCCCCCCCCC gave an emission maximum (in C1CCOC1) of 558 nm, an emission maximum (in Cc1ccccc1) of 541 nm and an emission maximum (in ClCCl) of 566 nm.
With C1=C(c2ccccc2)C=C(c2ccccc2)/C1=C/c1ccc(-c2cccs2)s1 the emission maximum (in C1CCOC1) was 503 nm.
CCOC(=O)C1=CN(c2ccccc2)C=C(C(=O)OCC)C1c1ccccc1 showed an emission maximum (in C1CCOC1) of 412 nm and an emission maximum (in CO) of 426 nm.
CCN(CC)c1ccc(-c2nc3c(c4c2-c2ccccc2CC4)-c2ccccc2CC3)cc1 gave an emission maximum (in C1CCOC1) of 452 nm, an emission maximum (in CC#N) of 463 nm and an emission maximum (in CCCCCC) of 425 nm. The emission maximum (in CCOC(C)=O) was 449 nm, the emission maximum (in CO) was 461 nm and the emission maximum (in CS(C)=O) was 470 nm. It also gave an emission maximum (in Cc1ccccc1) of 437 nm and an emission maximum (in ClCCl) of 449 nm.
Molecule C[Si]1(C)C(c2ccccc2)=Cc2ccccc21 has an emission maximum (in ClCCl) of 390 nm.
CCN(CC)c1ccc(/C=N/Nc2ccc(C#N)cc2)c(O)c1 showed an emission maximum (in CC#N) of 418 nm, an emission maximum (in CCCCCC) of 403 nm and an emission maximum (in CO) of 430 nm. The emission maximum (in CS(C)=O) was 422 nm and the emission maximum (in ClC(Cl)Cl) was 410 nm.
With c1ccc(-c2nc(-c3ccc(-c4nc(-c5ccccc5)c(-c5ccccc5)[nH]4)s3)[nH]c2-c2ccccc2)cc1 the emission maximum (in C1CCOC1) was 457 nm, the emission maximum (in CC#N) was 458 nm and the emission maximum (in CC(=O)O) was 503 nm and 502.99 nm. The emission maximum (in CC(C)=O) was 460 nm and 458 nm, the emission maximum (in CCOC(C)=O) was 457 nm and the emission maximum (in CCOCC) was 454 nm and 454.01 nm. The emission maximum (in CO) was 457 nm and the emission maximum (in ClC(Cl)Cl) was 485 nm and 484.99 nm.
O=C1c2ccccc2-c2nc3ccccc3n21 gave an emission maximum (in ClCCl) of 519 nm.
CSc1ccc2c(c1)N(CCCN1CCN(C)CN1C)c1ccccc1S2 gave an emission maximum (in CC#N) of 455 nm, an emission maximum (in CO) of 453 nm and an emission maximum (in O) of 466 nm.
Work on C/C(=C\c1ccc(C)cc1)c1nc2ccccc2o1 yielded an emission maximum (in C1CCCCC1) of 370 nm and an emission maximum (in CO) of 380 nm.
With COc1ccc(/C=C/c2ccc(/C=C/c3cc[n+]4ccc(/C=C/c5ccc(/C=C/c6ccc(OC)cc6)cc5)cc4c3)cc2)cc1 the emission maximum (in CO) was 620 nm.
Work on O=C1CC(=O)Nc2cc([N+](=O)[O-])ccc2N1 yielded an emission maximum (in CS(C)=O) of 403 nm.
C[Si]1(C)C2=C(c3ccc(N(c4ccccc4)c4ccccc4)cc31)P(=O)(c1ccccc1)c1ccccc12 (configuration not stated) showed an emission maximum (in CC#N) of 611 nm, an emission maximum (in CO) of 624 nm and an emission maximum (in Cc1ccccc1) of 544 nm.
For C[Si](C)(C)c1sc([Si](C)(C)C)c2c1sc1c3sc4c(sc5c4sc4c([Si](C)(C)C)sc([Si](C)(C)C)c45)c3sc12, the emission maximum (in ClC(Cl)Cl) was 442 nm.
With CC[n+]1c(C=C2C(=O)C(C=C3Sc4cc(Cl)ccc4N3C)=C2[O-])[se]c2ccccc21 the emission maximum (in CO) was 674 nm and the emission maximum (in ClC(Cl)Cl) was 699 nm.
With O=P1(c2ccccc2)c2ccc(N3c4ccccc4Sc4ccccc43)cc2-c2cc(N3c4ccccc4Sc4ccccc43)ccc21 the emission maximum (in Cc1ccccc1) was 559 nm and the emission maximum [1] was 555 nm.
F[B-]1(F)N2C=CN=CC2=[N+]2[N+]1=Cc1c(-c3ccccc3)cc(-c3ccccc3)n1[B-]2(F)F gave an emission maximum (in ClCCl) of 560 nm.
